Numbered stars: 1 amine (or outer) side, 2 acyl side, 3 side chain; on linkers, the order of the positions; unused ones are H or OH. Bridge positions count the residues as written; N and C are the ends. Square brackets hold non-standard residues; d marks the D form. Peptide text beside a SMILES is read from it. * marks the point of attachment. X3 = O=C(/C=N/OCCCCCCOc1cc(C[*:2])cc(C[*:3])c1)[*:1]; X1 = O=C(C=NOCCCCCCOc1cc(C[*:2])cc(C[*:3])c1)[*:1]; X11 = CCCCCOc1cc(C[*:1])cc(C[*:2])c1; dMet(O) = CS(=O)CC[C@@H](N)C(=O)O; hSer = N[C@@H](CCO)C(=O)O; Nle = CCCC[C@H](N)C(=O)O; X10 = CO/N=C/C(=O)*

Consider 15 compounds from patent US20230145835A1, “Modulators of Alpha-4-beta-7 Integrin and MAdCAM” (48HD Biopharma Inc., priority 2021, published 2023).

The first test has as its target T1, rh-integrin α4β7/LPAM-1 (Homo sapiens, UniProt P13612+P26010).
T1 sequence (P13612 34-977 limits assumed): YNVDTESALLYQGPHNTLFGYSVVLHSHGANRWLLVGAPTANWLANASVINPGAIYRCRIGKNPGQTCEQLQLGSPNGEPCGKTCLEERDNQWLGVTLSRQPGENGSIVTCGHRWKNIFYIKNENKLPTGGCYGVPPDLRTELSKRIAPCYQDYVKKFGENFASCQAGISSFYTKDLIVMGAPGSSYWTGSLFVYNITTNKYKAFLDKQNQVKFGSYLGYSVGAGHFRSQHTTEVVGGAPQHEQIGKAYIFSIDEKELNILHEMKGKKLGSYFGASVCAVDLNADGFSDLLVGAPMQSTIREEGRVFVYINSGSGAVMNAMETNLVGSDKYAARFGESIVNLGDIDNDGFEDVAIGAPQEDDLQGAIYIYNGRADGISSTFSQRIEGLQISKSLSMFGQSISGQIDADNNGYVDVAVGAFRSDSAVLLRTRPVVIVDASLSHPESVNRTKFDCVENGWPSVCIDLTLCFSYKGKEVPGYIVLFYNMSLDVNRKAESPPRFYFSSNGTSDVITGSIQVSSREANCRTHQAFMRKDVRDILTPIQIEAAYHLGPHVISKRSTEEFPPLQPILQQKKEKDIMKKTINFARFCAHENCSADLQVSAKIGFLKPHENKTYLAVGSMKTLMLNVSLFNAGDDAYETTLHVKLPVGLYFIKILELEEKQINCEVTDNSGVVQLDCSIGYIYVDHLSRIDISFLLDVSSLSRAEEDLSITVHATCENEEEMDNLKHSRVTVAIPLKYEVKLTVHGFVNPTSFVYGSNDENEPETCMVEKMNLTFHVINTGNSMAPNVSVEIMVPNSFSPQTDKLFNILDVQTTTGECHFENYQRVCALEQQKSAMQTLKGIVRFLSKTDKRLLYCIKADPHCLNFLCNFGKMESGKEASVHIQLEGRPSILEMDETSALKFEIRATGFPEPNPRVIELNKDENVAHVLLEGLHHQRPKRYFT
T1 sequence (P26010 20-723 limits assumed): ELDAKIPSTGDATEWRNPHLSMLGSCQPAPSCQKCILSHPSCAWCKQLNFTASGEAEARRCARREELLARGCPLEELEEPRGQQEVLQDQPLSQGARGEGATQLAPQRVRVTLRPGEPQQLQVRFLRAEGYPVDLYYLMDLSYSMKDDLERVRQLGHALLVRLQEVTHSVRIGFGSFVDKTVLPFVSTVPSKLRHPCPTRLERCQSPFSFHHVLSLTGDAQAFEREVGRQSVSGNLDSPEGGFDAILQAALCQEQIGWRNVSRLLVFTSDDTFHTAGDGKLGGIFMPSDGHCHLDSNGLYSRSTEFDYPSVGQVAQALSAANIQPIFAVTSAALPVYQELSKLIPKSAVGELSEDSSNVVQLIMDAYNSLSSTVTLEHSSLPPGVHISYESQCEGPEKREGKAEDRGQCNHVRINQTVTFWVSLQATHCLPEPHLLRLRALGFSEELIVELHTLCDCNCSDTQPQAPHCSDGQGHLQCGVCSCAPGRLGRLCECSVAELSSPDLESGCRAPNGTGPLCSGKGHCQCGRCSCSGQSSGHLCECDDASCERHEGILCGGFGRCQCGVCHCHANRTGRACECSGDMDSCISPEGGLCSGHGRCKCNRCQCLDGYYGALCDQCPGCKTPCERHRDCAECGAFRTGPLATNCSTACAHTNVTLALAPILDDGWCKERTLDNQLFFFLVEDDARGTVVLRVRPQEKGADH
Nature of the test: α4β7-MadCAM Competition ELISA (Example 4). The format is binding. The settings on record: IC50, Table 3 Representative compounds; inhibition of MAdCAM binding to coated α4β7. The method, then: After washing with wash buffer, 200 μL assay buffer was added to each well and incubated for one hour at 28° C. After another wash with wash buffer, 100 μL of a MAdCAM and peptide mixture in assay buffer was added to each well and incubated for one hour at 28° C., followed by washing with wash buffer.
Background: ELISA stands for enzyme-linked immunosorbent assay.
On to `CC[C@H](C)[C@@H]1NC(=O)[C@H](CC(=O)O)NC(=O)[C@H](CCOC)NC(=O)[C@@H]2CCCN2C(=O)[C@@H]2CSCc3cc(cc(c3)OCCCCCCO/N=C/C(=O)N[C@@H](CCCNC(=N)N)C(=O)N2)CSC[C@@H](C(N)=O)NC(=O)[C@H](CCC(=O)O)NC(=O)[C@H](Cc2ccc(O)cc2)NC(=O)[C@H](Cc2c[nH]c3ccccc23)NC1=O` [compound 48, TSL6- SRCP{Hse(OMe)} DIWYEC] (RCP[hSer](Me)DIWYEC-NH2; linker N-2-10 via X3), for which the half-inhibitory concentration (IC50) (as a rule, the concentration at which inhibition is half-maximal) turned out to be 1.71 µM.

The same test, now with this note: Table 3 Representative compounds; inhibition of MAdCAM binding to coated α4β7; read-out: IC50.
In the case of `CC(C)C[C@@H]1NC(=O)[C@H](C)NC(=O)[C@@H]2CSCc3cc(cc(c3)OCCCCCCO/N=C/C(=O)N[C@@H](CCCCN)C(=O)N2)CSC[C@@H](C(N)=O)NC(=O)[C@H](CO)NC(=O)[C@@H]2CCCN2C(=O)[C@H](C(C)C)NC(=O)[C@H](CC(=O)O)NC1=O` [compound 59, TSL6- SKCALDVPSC] (KCALDVPSC-NH2; linker N-2-9 via X3), the IC50 was determined as 4.01 µM.
As to `CCCC[C@@H]1NC(=O)[C@H](CO)NC(=O)[C@H](CCCNC(=N)N)NC(=O)[C@@H]2CSCC(=O)N[C@@H](CCCNC(=N)N)C(=O)N[C@@H](CSSC[C@@H](C(=O)N[C@@H](Cc3c[nH]c4ccccc34)C(=O)N[C@@H](CCC(N)=O)C(N)=O)NC(=O)[C@H](CC(C)C)NC(=O)[C@@H](CC(=O)O)NC1=O)C(=O)N[C@@H](CO)C(=O)N[C@@H](CC(=O)O)C(=O)N[C@@H]([C@@H](C)O)C(=O)N[C@@H](CC(C)C)C(=O)N2` [compound 68] ({CH2CO}-RCSDTLCRS[Nle][dD]LCWQ-NH2; disulfide 2-13; thioether N-7), the IC50 is 15.9 µM.
With `CCCCCOc1cc2cc(c1)CSC[C@H](NC(=O)[C@H](Cc1ccccc1)NC(=O)/C=N/OC)C(=O)N[C@@H](CC(C)C)C(=O)NCC(=O)N[C@@H](Cc1ccc(O)cc1)C(=O)N[C@@H](CCC(=O)O)C(=O)N[C@@H](C)C(=O)N[C@@H]([C@@H](C)O)C(=O)N[C@H](C(N)=O)CSC2` [compound 97, TSL6- SFCLGYEASC] (X10-FCLGYEATC-NH2; linker 2-9 via X11), the half-maximal inhibitory concentration (IC50) is 127 µM.
For `CC(C)C[C@H]1NC(=O)[C@@H]2CCCN2C(=O)[C@@H]2CSCc3cc(cc(c3)OCCCCCCO/N=C/C(=O)N[C@@H](C)C(=O)N2)CSC[C@@H](C(N)=O)NC(=O)[C@H](CO)NC(=O)[C@@H]2CCCN2C(=O)[C@H](C(C)C)NC(=O)[C@H](CC(=O)O)NC1=O` [compound 74, TSL6- SACPLDVPSC] (ACP[dL]DVPSC-NH2; linker N-2-9 via X3), the IC50 is 31 µM.
Take `C[C@@H](O)[C@@H]1NC(=O)[C@H](CC(=O)O)NC(=O)[C@@H]2CCCN2C(=O)[C@H](Cc2ccc(O)cc2)NC(=O)[C@@H]2CSCc3cc(cc(c3)OCCCCCCO/N=C/C(=O)N[C@@H](CCC(=O)O)C(=O)N2)CSC[C@@H](C(N)=O)NC(=O)[C@H](Cc2cnc[nH]2)NC(=O)[C@H](Cc2ccc(O)cc2)NC1=O` [compound 71, TSL6- SECYPDTYHC] (ECYPDTYHC-NH2; linker N-2-9 via X3): the IC50 is 20.2 µM.
For `CC(=O)N[C@H]1CSSC[C@@H](C(N)=O)NC(=O)[C@H](CC(C)C)NC(=O)[C@H]([C@@H](C)O)NC(=O)[C@H](CC(=O)O)NC(=O)[C@H](CO)NC(=O)[C@H](CCCNC(=N)N)NC1=O` [compound 5] (Ac-CRSDTLC-NH2; disulfide 1-7), the IC50 worked out at 0.122 µM.
On to `C[C@@H]1NC(=O)[C@H](CC(=O)O)NC(=O)[C@@H](CC[S+](C)[O-])NC(=O)[C@@H]2CCCN2C(=O)[C@@H]2CSCc3cc(cc(c3)OCCCCCCO/N=C/C(=O)N[C@@H](CCC(N)=O)C(=O)N2)CSC[C@@H](C(N)=O)NC(=O)[C@H]([C@@H](C)O)NC(=O)[C@@H]2CCCN2C1=O` (stereo partly drawn) [compound 67, TSL6-SQCP{Ox-Met}DAPTC] (QCP[dMet(O)]DAPTC-NH2; linker N-2-9 via X3), for which the half-inhibitory concentration (IC50) was found to be 15.7 µM.
`CC(C)C[C@@H]1NC(=O)[C@@H]2CCCN2C(=O)[C@@H]2CSCc3cc(cc(c3)OCCCCCCO/N=C/C(=O)N[C@@H](CCCCN)C(=O)N2)CSC[C@@H](C(N)=O)NC(=O)[C@H](CCC(=O)O)NC(=O)[C@H](Cc2ccc(O)cc2)NC(=O)[C@@H]2CCCN2C(=O)[C@H](C)NC(=O)[C@H](CC(=O)O)NC1=O` [compound 42, TSL6- SKCPLDAPYEC] (KCPLDAPYEC-NH2; linker N-2-10 via X3): the IC50 was found to be 1.4 µM.
For `CC(C)C[C@@H]1NC(=O)[C@@H]2CCCN2C(=O)[C@@H]2CSCc3cc(cc(c3)OCCCCCCO/N=C/C(=O)N[C@@H](CCCCN)C(=O)N2)CSC[C@@H](C(N)=O)NC(=O)[C@H](CCC(=O)O)NC(=O)[C@H](Cc2ccc(O)cc2)NC(=O)[C@@H]2CCCN2C(=O)[C@H](CC(C)C)NC(=O)[C@H](CC(=O)O)NC1=O` [compound 19] (KCPLDLPYEC-NH2; linker N-2-10 via X3), the IC50 stood at 0.363 µM.
Regarding `CC[C@H](C)[C@@H]1NC(=O)[C@H](CC(=O)O)NC(=O)[C@H](CCSC)NC(=O)[C@@H]2CCCN2C(=O)[C@@H]2CSCc3cc(cc(c3)OCCCCCCO/N=C/C(=O)N[C@@H](CCCNC(=N)N)C(=O)N2)CSC[C@@H](C(N)=O)NC(=O)[C@H]([C@@H](C)O)NC(=O)[C@@H]2CCCN2C1=O` [compound 20] (RCPMDIPTC-NH2; linker N-2-9 via X3), the IC50 amounted to 0.404 µM.

Staying with this test, now noted: competition ELISA, 4 μg/mL α4β7 coated, MAdCAM and peptide mixture, 28° C.; read-out: IC50.
As for `CC(C)C[C@@H]1NC(=O)[C@@H]2CCCN2C(=O)[C@@H]2CSCc3cc(cc(c3)OCCCCCCON=CC(=O)N[C@@H](CCCCN)C(=O)N2)CSC[C@@H](C(=O)O)NC(=O)[C@H](CCC(=O)O)NC(=O)[C@H](Cc2ccc(O)cc2)NC(=O)[C@@H]2CCCN2C(=O)[C@H](CC(C)C)NC(=O)[C@H](CC(=O)O)NC1=O` [SEQ ID NO: 134] (KCPLDLPYEC-OH; linker N-2-10 via X1), the IC50 was determined as 0.363 µM.
Still for that read-out and setting: in the case of `CCCC[C@@H]1NC(=O)[C@H](CO)NC(=O)[C@H](CCCNC(=N)N)NC(=O)[C@@H]2CSCC(=O)N[C@@H](CCCNC(=N)N)C(=O)N[C@@H](CSSC[C@@H](C(=O)N[C@@H](Cc3c[nH]c4ccccc34)C(=O)N[C@@H](CCC(N)=O)C(N)=O)NC(=O)[C@H]([C@@H](C)CC)NC(=O)[C@H](CC(=O)O)NC1=O)C(=O)N[C@@H](CO)C(=O)N[C@@H](CCCC)C(=O)N[C@@H](CC(=O)O)C(=O)N[C@@H]([C@@H](C)CC)C(=O)N2` [SEQ ID NO: 76] ({CH2CO}-RCS[Nle]DICRS[Nle]DICWQ-NH2; disulfide 2-13; thioether N-7) it was 263 µM; in that of `C[C@@H]1NC(=O)[C@@H]2CCCN2C(=O)[C@@H]2CSCc3cc(cc(c3)OCCCCCCON=CC(=O)N[C@@H](CCCCN)C(=O)N2)CSC[C@@H](C(=O)O)NC(=O)[C@H](CCC(=O)O)NC(=O)[C@H](Cc2ccc(O)cc2)NC(=O)[C@@H]2CCCN2C(=O)[C@H]([C@@H](C)O)NC(=O)[C@H](CC(=O)O)NC1=O` [SEQ ID NO: 71] (KCPADTPYEC-OH; linker N-2-10 via X1), more than 500 µM; in that of `CCCC[C@@H]1NC(=O)[C@H](CO)NC(=O)[C@H](CCCNC(=N)N)NC(=O)[C@@H]2CSCC(=O)N[C@@H](CCCNC(=N)N)C(=O)N[C@@H](CSSC[C@@H](C(=O)N[C@@H](Cc3c[nH]c4ccccc34)C(=O)N[C@@H](CCC(N)=O)C(N)=O)NC(=O)[C@H]([C@@H](C)CC)NC(=O)[C@H](CC(=O)O)NC1=O)C(=O)N[C@@H](CO)C(=O)N[C@@H](CC(=O)O)C(=O)N[C@@H]([C@@H](C)O)C(=O)N[C@@H](CC(C)C)C(=O)N2` [SEQ ID NO: 96] ({CH2CO}-RCSDTLCRS[Nle]DICWQ-NH2; disulfide 2-13; thioether N-7), 15.9 µM.
